Data reported in article PMC6694038, “Pharmacogenomic–pharmacokinetic study of selective estrogen-receptor modulators with intra-patient dose escalation in breast cancer” (Breast Cancer (Tokyo, Japan), 2019).
“Also recorded” adds a separate entry of the source. Like-named read-outs stand apart in the source and are kept apart here.

Key:
[1] = TOR versus TAM, seven randomized-controlled trials; cited from earlier work
[2] = weighting of plasma concentration; cited from earlier work
[3] = Total activity: sum of plasma concentrations of each active metabolite adjusted by in vitro activity; assay type: in vivo, breast cancer patients
Method: Blood samples for PK analysis were obtained from patients who had good compliance with taking medications 2–4 h after taking anti-estrogens. […] The interday variability and intraday variability for all compounds are within 15%.

[4] = Plasma concentrations of TAM, TOR and their metabolites by LC–MS/MS (screening study); conditions: TOR 120 mg for up to 6 months
[5] = Source text: Written informed consent was obtained from all the participants included in the study. The patient enrolment period for the screening study started on February 1, 2009 and ended on July 31, 2012.
(§1) We obtained data on compliance and the grade of hot flush as defined by the Common Terminology Criteria for Adverse Events v3.0.
The p value was not calculated if there were no events.

[6] = Hot flush grade (CTCAE v3.0) in the screening study; assay type: in vivo, breast cancer patients; conditions: screening study
Source text: as §1

## CN(C)CCOc1ccc(/C(=C(/CCCl)c2ccccc2)c2ccccc2)cc1 [TOR, toremifene]
[1]
  Efficacy in patients with advanced breast cancer: equally effective
[2]
  In vitro activity factor in the total activity of TOR (TOR = 1.0): 1.0
[3]; TOR 120 mg for up to 6 months, trend for decrease after 24 weeks
  Total activity on continuing the same dose: remained constant
[3]; TOR from 40 to 120 mg, p < 0.01
  Change of total activity after increasing the dose: increased significantly; also recorded: increased by at least twofold
[4]
  Concentration on continuing the same dose: remained constant
[5]; TOR 40 mg
  Cre elevation All grade, % of patients: 36.4%
  Cre elevation All grade, patients: 4
  Cre elevation ≧ G2, % of patients: 0 (0) %
  Cre elevation ≧ G2, patients: 0 (0)
  GOT elevation All grade, % of patients: 0 (0) %
  GOT elevation All grade, patients: 0 (0)
  GOT elevation ≧ G2, % of patients: 0 (0) %
  GOT elevation ≧ G2, patients: 0 (0)
  GPT elevation All grade, % of patients: 0 (0) %
  GPT elevation All grade, patients: 0 (0)
  GPT elevation ≧ G2, % of patients: 0 (0) %
  GPT elevation ≧ G2, patients: 0 (0)
  Hot flush G0, % of patients: 100%
  Hot flush G0, patients: 14
  Hot flush G1, % of patients: 0 (0) %
  Hot flush G1, patients: 0 (0)
  Hot flush G2, % of patients: 0 (0) %
  Hot flush G2, patients: 0 (0)
  Hyperglycemia All grade, % of patients: 0 (0) %
  Hyperglycemia All grade, patients: 0 (0)
  Hyperglycemia ≧ G2, % of patients: 0 (0) %
  Hyperglycemia ≧ G2, patients: 0 (0)
  LDH elevation All grade, % of patients: 0 (0) %
  LDH elevation All grade, patients: 0 (0)
  LDH elevation ≧ G2, % of patients: 0 (0) %
  LDH elevation ≧ G2, patients: 0 (0)
  LDL elevation All grade, % of patients: 0 (0) %
  LDL elevation All grade, patients: 0 (0)
  LDL elevation ≧ G2, % of patients: 0 (0) %
  LDL elevation ≧ G2, patients: 0 (0)
  Low PLT All grade, % of patients: 0 (0) %
  Low PLT All grade, patients: 0 (0)
  Low PLT ≧ G2, % of patients: 0 (0) %
  Low PLT ≧ G2, patients: 0 (0)
  Low WBC All grade, % of patients: 11.1%
  Low WBC All grade, patients: 1
  Low WBC ≧ G2, % of patients: 11.1%
  Low WBC ≧ G2, patients: 1
  T. Bil elevation All grade, % of patients: 0 (0) %
  T. Bil elevation All grade, patients: 0 (0)
  T. Bil elevation ≧ G2, % of patients: 0 (0) %
  T. Bil elevation ≧ G2, patients: 0 (0)
  TG elevation All grade, % of patients: 12.5%
  TG elevation All grade, patients: 1
  TG elevation ≧ G2, % of patients: 0 (0) %
  TG elevation ≧ G2, patients: 0 (0)
  Weight, max: 73.4 kg
  Weight, mean: 53.2 kg
  Weight, median: 51.7 kg
  Weight, min: 45.0 kg
[5]; TOR 120 mg (1)
  Cre elevation All grade, % of patients: 27.3%
  Cre elevation All grade, patients: 3
  Cre elevation ≧ G2, % of patients: 0 (0) %
  Cre elevation ≧ G2, patients: 0 (0)
  GOT elevation All grade, % of patients: 16.7%
  GOT elevation All grade, patients: 2
  GOT elevation ≧ G2, % of patients: 8.3%
  GOT elevation ≧ G2, patients: 1
  GPT elevation All grade, % of patients: 8.3%
  GPT elevation All grade, patients: 1
  GPT elevation ≧ G2, % of patients: 8.3%
  GPT elevation ≧ G2, patients: 1
  Hot flush G0, % of patients: 69.2%
  Hot flush G0, patients: 9
  Hot flush G1, % of patients: 15.4%
  Hot flush G1, patients: 2
  Hot flush G2, % of patients: 15.4%
  Hot flush G2, patients: 2
  Hyperglycemia All grade, % of patients: 0 (0) %
  Hyperglycemia All grade, patients: 0 (0)
  Hyperglycemia ≧ G2, % of patients: 0 (0) %
  Hyperglycemia ≧ G2, patients: 0 (0)
  LDH elevation All grade, % of patients: 7.1%
  LDH elevation All grade, patients: 1
  LDH elevation ≧ G2, % of patients: 7.1%
  LDH elevation ≧ G2, patients: 1
  LDL elevation All grade, % of patients: 14.3%
  LDL elevation All grade, patients: 1
  LDL elevation ≧ G2, % of patients: 0 (0) %
  LDL elevation ≧ G2, patients: 0 (0)
  Low PLT All grade, % of patients: 0 (0) %
  Low PLT All grade, patients: 0 (0)
  Low PLT ≧ G2, % of patients: 0 (0) %
  Low PLT ≧ G2, patients: 0 (0)
  Low WBC All grade, % of patients: 11.1%
  Low WBC All grade, patients: 1
  Low WBC ≧ G2, % of patients: 11.1%
  Low WBC ≧ G2, patients: 1
  T. Bil elevation All grade, % of patients: 0 (0) %
  T. Bil elevation All grade, patients: 0 (0)
  T. Bil elevation ≧ G2, % of patients: 0 (0) %
  T. Bil elevation ≧ G2, patients: 0 (0)
  TG elevation All grade, % of patients: 0 (0) %
  TG elevation All grade, patients: 0 (0)
  TG elevation ≧ G2, % of patients: 0 (0) %
  TG elevation ≧ G2, patients: 0 (0)
  Weight, max: 73.5 kg
  Weight, mean: 53.4 kg
  Weight, median: 51.0 kg
  Weight, min: 45.0 kg
[5]; TOR 120 mg (2)
  Cre elevation All grade, % of patients: 16.7%
  Cre elevation All grade, patients: 2
  Cre elevation ≧ G2, % of patients: 0 (0) %
  Cre elevation ≧ G2, patients: 0 (0)
  GOT elevation All grade, % of patients: 8.3%
  GOT elevation All grade, patients: 1
  GOT elevation ≧ G2, % of patients: 0 (0) %
  GOT elevation ≧ G2, patients: 0 (0)
  GPT elevation All grade, % of patients: 8.3%
  GPT elevation All grade, patients: 1
  GPT elevation ≧ G2, % of patients: 0 (0) %
  GPT elevation ≧ G2, patients: 0 (0)
  Hot flush G0, % of patients: 75.0%
  Hot flush G0, patients: 9
  Hot flush G1, % of patients: 8.3%
  Hot flush G1, patients: 1
  Hot flush G2, % of patients: 16.7%
  Hot flush G2, patients: 2
  Hyperglycemia All grade, % of patients: 7.1%
  Hyperglycemia All grade, patients: 1
  Hyperglycemia ≧ G2, % of patients: 7.1%
  Hyperglycemia ≧ G2, patients: 1
  LDH elevation All grade, % of patients: 0 (0) %
  LDH elevation All grade, patients: 0 (0)
  LDH elevation ≧ G2, % of patients: 0 (0) %
  LDH elevation ≧ G2, patients: 0 (0)
  LDL elevation All grade, % of patients: 10.0%
  LDL elevation All grade, patients: 1
  LDL elevation ≧ G2, % of patients: 0 (0) %
  LDL elevation ≧ G2, patients: 0 (0)
  Low PLT All grade, % of patients: 0 (0) %
  Low PLT All grade, patients: 0 (0)
  Low PLT ≧ G2, % of patients: 0 (0) %
  Low PLT ≧ G2, patients: 0 (0)
  Low WBC All grade, % of patients: 8.3%
  Low WBC All grade, patients: 1
  Low WBC ≧ G2, % of patients: 8.3%
  Low WBC ≧ G2, patients: 1
  T. Bil elevation All grade, % of patients: 0 (0) %
  T. Bil elevation All grade, patients: 0 (0)
  T. Bil elevation ≧ G2, % of patients: 0 (0) %
  T. Bil elevation ≧ G2, patients: 0 (0)
  TG elevation All grade, % of patients: 0 (0) %
  TG elevation All grade, patients: 0 (0)
  TG elevation ≧ G2, % of patients: 0 (0) %
  TG elevation ≧ G2, patients: 0 (0)
  Weight, max: 73.0 kg
  Weight, mean: 53.6 kg
  Weight, median: 51.1 kg
  Weight, min: 46.0 kg
[5]; TOR 40 to 120 mg
  Body weight during dose escalation: remained stable
  Hot flushes and GOT/GPT elevation with an increase in the dose: only a few patients developed hot flushes and GOT/GPT elevation
[6]; TOR 40 mg
  Hot flush grade 0, % of patients: 57.4%
  Hot flush grade 0, patients: 35
  Hot flush grade 1, % of patients: 32.8%
  Hot flush grade 1, patients: 20
  Hot flush grade 2, % of patients: 9.8%
  Hot flush grade 2, patients: 6
  Hot flush grade 3, % of patients: 0.0%
  Hot flush grade 3, patients: 0
[6]; TOR 120 mg
  Hot flush grade 0, % of patients: 88.9%
  Hot flush grade 0, patients: 24
  Hot flush grade 1, % of patients: 11.1%
  Hot flush grade 1, patients: 3
  Hot flush grade 2, % of patients: 0.0%
  Hot flush grade 2, patients: 0
  Hot flush grade 3, % of patients: 0.0%
  Hot flush grade 3, patients: 0
[6]; patients taking TOR 120 mg
  Grade and frequency of hot flushes compared with TAM 20 mg or TOR 40 mg: lower grade and frequency of hot flushes
